These results are taken from EP0573652A1, “REMEDY FOR RENAL DISEASES” (FUJISAWA PHARMACEUTICAL CO., LTD., priority 1991, dated 1992).

In data set [1] the test system is cynomolgus monkeys. As to the kind of experiment: Effects on increasing renal blood flow (anesthetized, furosemide-pretreated monkeys, electromagnetic blood flowmeter). The format is in vivo. The settings on record: Dose 0.32 mg/kg intravenously; anesthetized cynomolgus monkeys given furosemide. The method, then: Male and female cynomolgus monkeys weighing 2.0-4.8 kg were fed with conventional diet were given furosemide 10 mg/kg subcutaneously and 5 mg/kg intravenously on the previous day and the day of dosing with the test compound respectively. The animals were anesthetized with sodium pentobarbital (20 mg/kg, i.v.) and were maintained at a stable anesthetic level by continuous infusion of the anesthetic at a rate of 6 mg/kg/hr. After fixing the animals on the bench at 37°C, right femoral artery was catheterized for recording of the mean arterial blood pressure using a pressure transducer and left femoral vein was also catheterized for injection of the drug. Left renal artery was installed with an electromagnetic probe for recording renal blood flow using an electromagnetic blood flowmeter. When blood pressure, heart rate and renal blood flow, became sufficiently stable, the test compound dissolved in physiological saline was intravenously given at a rate of 0.2 ml/kg.

Data set [2] concerns cynomolgus monkeys. Briefly: Diuretic effects (urine volume, urinary electrolytes, renal plasma flow, glomerular filtration rate in anesthetized monkeys). The note with it: at 15 min. after dosing, Control : 100%; for Increasing % of glomerular filtration rate: calculated from inulin concentrations; for Increasing % of renal plasma flow: calculated from paraaminohypuric acid concentrations. It counts as in vivo. The method, then:
Female cynomolgus monkeys weighing 3.2 - 3.9 kg were anesthetized with sodium pentobarbital (20 mg/kg, i.v.) and were maintained at a stable anesthetic level by continuous infusion of the anesthetic at a rate of 4 mg/kg/hr, and then right saphenous vein was catheterized for intravenous infusion. […] Under monitoring blood pressure, urine samples were taken from bladder by catheter and blood samples were taken from right brachial vein. After 90 min. when urine volume, blood, paraaminohypuric acid and inulin concentrations became stable, blood and urine samples were taken to measure concentrations of paraaminohypuric acid and inulin 45 min. before and 15, 30, 45 and 60 min. after dosing with the test compound. Urine volume and urinary electrolytes were measured and the renal plasma flow and glomerular filtration rate values were calculated from respective paraaminohypuric acid and inulin concentrations in the blood and urine samples.

Another data set can be described thus: Acute toxicity test. The note with it: Crj:CD(SD), rat, in vivo, iv, intravenously, observed for 14 days, probit method, read-out: LD₅₀. More on the design: species or system rats (Crj:CD(SD) strain). As to the method: Five rats (Crj:CD(SD) strain) of either sex were used per group. Solutions of the test compound in physiological saline were administered to rats intravenously. The rats were then observed for 14 days. The LD₅₀ values were calculated by the probit method.

Molecules are shown by their SMILES. Read-outs that look alike come from different tables or passages of the source.

Turning to `CC(C)CC[C@H](O)[C@H](CC1CCCCC1)NC(=O)[C@H](Cc1c[nH]cn1)N(C)C(=O)[C@H](Cc1ccccc1)OC(=O)N(C)CCC(=O)N1CCOCC1.Cl` [(1), 2(S)-[N^α-[2(S)-{N-(2-morpholinocarbonylethyl)-N-methylaminocarbonyloxy}-3-phenylpropionyl]-N^α-methyl-L-histidyl]amino-1-cyclohexyl-3(S)-hydroxy-6-methylheptane hydrochloride], in the data set with cynomolgus monkeys [1], the “Maximum decreasing % of renal vascular resistance” value (“Maximum decreasing %” below) is on record as “+19.3%” and the “Maximum increasing % of renal blood flow” value is recorded as “+17.1%”. Besides, in the data set on cynomolgus monkeys [2] (Dose 3.2 mg/kg), the “Increasing % of Cl⁻ excretion” value is reported as 417%, the “Increasing % of K⁺ excretion” value amounted to 135%, the “Increasing % of Na⁺ excretion” value was 223% and the “Increasing % of urine volume” value is reported as 259%. In the data set with cynomolgus monkeys [2] (Dose 3.2 mg/kg), the “Increasing % of glomerular filtration rate” value was 122% and the “Increasing % of renal plasma flow” value was 149%. Further, the LD50 at 14 days in “Acute toxicity test” (Female rats) was found to be 93.3 mg/kg. For the same compound, the LD50 at 14 days in “Acute toxicity test” (Male rats) is 81.2 mg/kg.
With `CC(C)CC[C@H](O)[C@H](CC1CCCCC1)NC(=O)[C@H](Cc1c[nH]cn1)N(C)C(=O)[C@H](Cc1ccccc1)OC(=O)N(C)CCN(C)C(=O)N1CCOCC1.Cl` [(2), 2(S)-[N^α-[2(S)-[N-methyl-N-[2-{N-(morpholinocarbonyl)-N-methylamino)ethyl]aminocarbonyloxy]-3-phenylpropionyl]-N^α-methyl-L-histidyl]amino-1-cyclohexyl-3(S)-hydroxy-6-methylheptane hydrochloride], in the data set on cynomolgus monkeys [1], the “Maximum decreasing %” value is recorded as “+35.5%” and the “Maximum increasing % of renal blood flow” value is “+33.8%”. For the same compound, in the data set on cynomolgus monkeys [2] (Dose 1.0 mg/kg), the “Increasing % of Cl⁻ excretion” value was 466%, the “Increasing % of K⁺ excretion” value is 169%, the “Increasing % of Na⁺ excretion” value came to 205% and the “Increasing % of urine volume” value worked out at 202%. Also, in the data set on cynomolgus monkeys [2] (Dose 1.0 mg/kg), the “Increasing % of glomerular filtration rate” value is listed as 156% and the “Increasing % of renal plasma flow” value is given as 169%. Further, the LD50 at 14 days in the data set “Acute toxicity test” (Female rats) stood at 69 mg/kg. Moreover, the LD50 at 14 days in the data set “Acute toxicity test” (Male rats) amounted to 55 mg/kg.
As for `C[C@H](CS)C(=O)N1CCC[C@H]1C(=O)O` [(A), Captopril, reference compound], the “Maximum decreasing %” value with cynomolgus monkeys [1] is on record as “+11.5%”. Moreover, the “Increasing % of glomerular filtration rate” value in the data set on cynomolgus monkeys [2] (Dose 3.2 mg/kg) is reported as 114%.
